Assay results published in patent publication US20120122727A1, “IN VITRO METHOD FOR PREDICTING WHETHER A COMPOUND IS GENOTOXIC IN VIVO” (priority 2009, published 2012).

Test system: primary mouse hepatocytes
Test: Gene expression in primary mouse hepatocytes, GTX vs non-GTX (four-gene classifier, 24 h)
Settings: for score 1700007K13RIK / score DDIT4L / score GAS2L3 / score SPC25 / Ratios of gene expression treated/untreated 1700007K13RIK / Ratios of gene expression treated/untreated DDIT4L / Ratios of gene expression treated/untreated GAS2L3 / Ratios of gene expression treated/untreated SPC25: 24 h exposure; for score 1700007K13RIK / score DDIT4L / score GAS2L3 / score SPC25: average of four replicates; for Ratios of gene expression treated/untreated 1700007K13RIK / Ratios of gene expression treated/untreated DDIT4L / Ratios of gene expression treated/untreated GAS2L3 / Ratios of gene expression treated/untreated SPC25: log 2 ratio, concentration per Table 4; for Total score: sum of scores for four genes, 0 = not genotoxic, 1, 2, 3 or 4 = genotoxic
Experimental: Hepatocyte cells were incubated and exposed to a compound for 24 h before being harvested for RNA isolation.
The results of the gene expression analysis may then be fed into a statistical software package such as R, Splus, or Microsoft Excel. […] If none or only one of these criteria were met, no point was scored.
For each of the four genes mentioned in the table (1700007K13RIK, GAS2L3, SPC25, DDIT4L), a statistical comparison was made between the normalized expression data for these genes. […] If none or only one of these criteria were met, no point was scored.
For each compound, the sum of the scores for four genes is taken. If this score is 0, a compound can be believed not to be genotoxic. If this score is 1, 2, 3 or 4, a compound is genotoxic.
If none or only one of these criteria were met, no point was scored.

SMILES	score 1700007K13RIK	score DDIT4L	score GAS2L3	score SPC25	Ratios of gene expression treated/untreated 1700007K13RIK	Ratios of gene expression treated/untreated DDIT4L	Ratios of gene expression treated/untreated GAS2L3	Ratios of gene expression treated/untreated SPC25	Total score
CC(C)(c1ccc(O)cc1)c1ccc(O)cc1 [BPA, Bisphenol A]	0	0	0	0	−0.0382	0.0293	−0.06	−0.0457	0
ClC(Cl)(Cl)Cl [CCI4, Carbon tetrachloride]	0	0	0	0	0.3906	0.4894	−0.3188	0.3544	0
